Measured values as given in PubChem BioAssay (NCI).
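Step 1: Grow cells in 96-well plates. Step 2: Expose to compound for 48 hours at 5 concentrations. Step 3: Interpolate endpoints linearly; if unreached, use highest concentration. GI50: concentration for 50% inhibition of growth. TGI: concentration producing complete growth inhibition.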

Tests used:
Assay in all cases: NCI tumour cell line growth inhibition, 48 h
DU-145 prostate = tested on: DU-145 prostate
HCC-2998 colon = tested on: HCC-2998 colon
HCT-15 colon = tested on: HCT-15 colon
IGROV1 ovarian = tested on: IGROV1 ovarian
NCI-H460 lung = tested on: NCI-H460 lung
OVCAR-4 ovarian = tested on: OVCAR-4 ovarian
SK-MEL-5 melanoma = tested on: SK-MEL-5 melanoma
SNB-19 CNS = tested on: SNB-19 CNS
SR leukemia = tested on: SR leukemia
TK-10 renal = tested on: TK-10 renal
UACC-62 melanoma = tested on: UACC-62 melanoma
UO-31 renal = tested on: UO-31 renal
CAKI-1 renal = tested on: CAKI-1 renal
EKVX NSCLC = tested on: EKVX NSCLC
SNB-75 CNS = tested on: SNB-75 CNS

Work on `COc1cccc(-c2nc(-c3cnccn3)n(COCCO)n2)c1` yielded a TGI (DU-145 prostate) greater than 100 µM, a TGI (HCC-2998 colon) greater than 100 µM and a TGI (HCT-15 colon) greater than 100 µM. It also gave a TGI (IGROV1 ovarian) greater than 100 µM, a TGI (NCI-H460 lung) greater than 100 µM and a TGI (OVCAR-4 ovarian) greater than 100 µM. For the same compound, the TGI (SK-MEL-5 melanoma) was greater than 100 µM, the TGI (SNB-19 CNS) was greater than 100 µM and the TGI (SR leukemia) was greater than 100 µM. It also gave a TGI (TK-10 renal) greater than 100 µM, a TGI (UACC-62 melanoma) greater than 100 µM and a TGI (UO-31 renal) greater than 100 µM.
Compound `Cc1cc(Cl)ccc1C1OC(=O)c2c1ccc1ccccc21` (configuration not stated) has a TGI (CAKI-1 renal) greater than 100 µM, a TGI (EKVX NSCLC) greater than 100 µM and a TGI (HCC-2998 colon) greater than 100 µM. The TGI (HCT-15 colon) was greater than 100 µM, the TGI (IGROV1 ovarian) was greater than 100 µM and the TGI (NCI-H460 lung) was greater than 100 µM. For the same compound, the TGI (OVCAR-4 ovarian) was greater than 100 µM, the TGI (SK-MEL-5 melanoma) was greater than 100 µM and the TGI (SNB-19 CNS) was greater than 100 µM. It also gave a TGI (SNB-75 CNS) greater than 100 µM, a TGI (TK-10 renal) greater than 100 µM and a TGI (UACC-62 melanoma) greater than 100 µM. It also gave a TGI (UO-31 renal) greater than 100 µM.
`CC(C)(C)OC(=O)N(CCCCNCc1ccc2ccccc2c1)CCCNCc1ccc2ccccc2c1` was tested, and the TGI (CAKI-1 renal) was 2.45 µM, the TGI (DU-145 prostate) was 3.1 µM and the TGI (EKVX NSCLC) was 3.05 µM. For the same compound, the TGI (HCC-2998 colon) was 0.549 µM, the TGI (HCT-15 colon) was 3.12 µM and the TGI (IGROV1 ovarian) was 3.21 µM. It also gave a TGI (NCI-H460 lung) of 2.18 µM, a TGI (OVCAR-4 ovarian) of 3.19 µM and a TGI (SNB-19 CNS) of 3.22 µM. It also gave a TGI (SNB-75 CNS) of 2.99 µM, a TGI (TK-10 renal) of 3.07 µM and a TGI (UACC-62 melanoma) of 3.08 µM. The TGI (UO-31 renal) was 3.17 µM.
For `Cc1ccc2c(=O)cc(-c3sc4ccccc4c3C)[nH]c2n1`, the TGI (CAKI-1 renal) was 53.3 µM, the TGI (DU-145 prostate) was 65.9 µM and the TGI (EKVX NSCLC) was 88.2 µM. The TGI (HCT-15 colon) was 73.8 µM, the TGI (IGROV1 ovarian) was 45.7 µM and the TGI (OVCAR-4 ovarian) was 54 µM. For the same compound, the GI50 (SK-MEL-5 melanoma) was 14.9 µM, the TGI (SK-MEL-5 melanoma) was 28.2 µM and the TGI (SNB-19 CNS) was greater than 100 µM. The TGI (SNB-75 CNS) was 50.8 µM, the TGI (TK-10 renal) was greater than 100 µM and the TGI (UACC-62 melanoma) was 36.3 µM.
For `Cc1ccc(S(=O)(=O)c2c(N)n(CCN(C)C)c3nc4ccccc4nc23)cc1`, the TGI (EKVX NSCLC) was greater than 100 µM, the TGI (HCC-2998 colon) was greater than 100 µM and the TGI (HCT-15 colon) was greater than 100 µM. For the same compound, the TGI (IGROV1 ovarian) was greater than 100 µM, the TGI (NCI-H460 lung) was greater than 100 µM and the TGI (OVCAR-4 ovarian) was greater than 100 µM. It also gave a TGI (SK-MEL-5 melanoma) greater than 100 µM, a TGI (SNB-19 CNS) greater than 100 µM and a TGI (SNB-75 CNS) greater than 100 µM. For the same compound, the TGI (TK-10 renal) was greater than 100 µM and the TGI (UO-31 renal) was greater than 100 µM.
`N#Cc1sc2c(c1O)c(=O)n(-c1ccccc1)c(=S)n2-c1ccccc1` gave a TGI (DU-145 prostate) greater than 100 µM, a TGI (HCC-2998 colon) greater than 100 µM and a TGI (HCT-15 colon) greater than 100 µM. It also gave a TGI (IGROV1 ovarian) greater than 100 µM, a TGI (NCI-H460 lung) greater than 100 µM and a TGI (OVCAR-4 ovarian) greater than 100 µM. For the same compound, the TGI (SK-MEL-5 melanoma) was greater than 100 µM, the TGI (SNB-19 CNS) was greater than 100 µM and the TGI (SNB-75 CNS) was greater than 100 µM. For the same compound, the TGI (SR leukemia) was greater than 100 µM, the TGI (TK-10 renal) was greater than 100 µM and the TGI (UACC-62 melanoma) was greater than 100 µM. For the same compound, the TGI (UO-31 renal) was greater than 100 µM.
`COc1ccc(CCc2nccn2C)cc1OC` was tested, and the TGI (CAKI-1 renal) was greater than 100 µM, the TGI (EKVX NSCLC) was greater than 100 µM and the TGI (HCC-2998 colon) was greater than 100 µM. The TGI (HCT-15 colon) was greater than 100 µM, the TGI (IGROV1 ovarian) was greater than 100 µM and the TGI (NCI-H460 lung) was greater than 100 µM. The TGI (OVCAR-4 ovarian) was greater than 100 µM, the TGI (SK-MEL-5 melanoma) was greater than 100 µM and the TGI (SNB-19 CNS) was greater than 100 µM. For the same compound, the TGI (SR leukemia) was greater than 100 µM, the TGI (TK-10 renal) was greater than 100 µM and the TGI (UACC-62 melanoma) was greater than 100 µM. The TGI (UO-31 renal) was greater than 100 µM.
`COc1cc2c(cc1OC)C(=O)N(NC1=NCCN1)C2=O` showed a TGI (CAKI-1 renal) greater than 100 µM, a TGI (DU-145 prostate) greater than 100 µM and a TGI (EKVX NSCLC) greater than 100 µM. The TGI (HCC-2998 colon) was greater than 100 µM, the TGI (HCT-15 colon) was greater than 100 µM and the TGI (IGROV1 ovarian) was greater than 100 µM. The TGI (NCI-H460 lung) was greater than 100 µM, the TGI (OVCAR-4 ovarian) was greater than 100 µM and the TGI (SK-MEL-5 melanoma) was greater than 100 µM. For the same compound, the TGI (SNB-19 CNS) was greater than 100 µM, the TGI (SR leukemia) was greater than 100 µM and the TGI (TK-10 renal) was greater than 100 µM. It also gave a TGI (UACC-62 melanoma) greater than 100 µM.
Work on `CCCCNC(=S)/N=C/c1c(O)c2ccccc2[nH]c1=O` yielded a TGI (CAKI-1 renal) greater than 10 µM, a TGI (EKVX NSCLC) greater than 10 µM and a TGI (HCC-2998 colon) greater than 10 µM. For the same compound, the TGI (HCT-15 colon) was greater than 10 µM, the TGI (IGROV1 ovarian) was greater than 10 µM and the TGI (NCI-H460 lung) was greater than 10 µM. For the same compound, the TGI (OVCAR-4 ovarian) was greater than 10 µM, the TGI (SNB-19 CNS) was greater than 10 µM and the TGI (SR leukemia) was greater than 10 µM. For the same compound, the TGI (TK-10 renal) was greater than 10 µM, the TGI (UACC-62 melanoma) was greater than 10 µM and the TGI (UO-31 renal) was greater than 10 µM.
